This is an account of results in patent publication US20170150719A1, “FUNGICIDAL PYRAZOLES AND THEIR MIXTURES” (E I DU PONT DE NEMOURS AND COMPANY, priority 2010, published 2017).

In test [1] the test system is Septoria tritici. As to the kind of experiment: Test F: wheat leaf blotch, preventive spray on wheat seedlings, visual disease rating. The test is classed as in vivo. Also noted: Test F rating (disease control), value marked *: concentration or dose not given beside the values; pest or weed control: dose or concentration left out as unconfirmed. Conditions: for pest or weed control at 200 µg/mL / pest or weed control: Zymoseptoria tritici; for pest or weed control at 200 µg/mL / Test F rating (% disease control): 100 = 100% disease control; for pest or weed control at 200 µg/mL: 0 = no disease control relative to the controls; for Test F rating (% disease control) / pest or weed control: preventive spray; for Test F rating (% disease control): rating without asterisk; for pest or weed control: other test suspension concentration than unmarked ratings. An excerpt: (§1) A hyphen (-) indicates no test results.

In test [2] the test system is Puccinia recondita f. sp. tritici. As to the kind of experiment: Test G: wheat leaf rust, spray after inoculation (curative) on wheat seedlings, visual disease rating. Format: in vivo. The following applies: 100 = 100% disease control; for pest or weed control at 200 µg/mL: sprayed after inoculation, 0 = no disease control; for Test G rating (% disease control): spray after inoculation, rating without asterisk.
Description: as §1

Test [3] shares this test system. Briefly: Test H: wheat leaf rust, preventive spray on wheat seedlings, visual disease rating. The following applies: for pest or weed control at 200 µg/mL: read-out: Test H rating (disease control), wheat leaf rust, sprayed the day before inoculation; for Test H rating (% disease control): preventive spray, rating without asterisk; for pest or weed control at 40 µg/mL: read-out: Test H rating (% disease control), marked *, wheat leaf rust, preventive spray, rating marked with asterisk (*), other test suspension concentration than unmarked ratings.

Test [4] relates to Botrytis cinerea. As to the kind of experiment: Test A: tomato Botrytis, preventive spray on tomato seedlings, visual disease rating. The following applies: for pest or weed control at 40 µg/mL: read-out: Test A rating (% disease control), marked *, tomato Botrytis, preventive spray, rating marked with asterisk (*), other test suspension concentration than unmarked ratings.
Test [5] has as its system Alternaria solani. Briefly: Test B: tomato early blight, preventive spray on tomato seedlings, visual disease rating. Conditions: for pest or weed control at 200 µg/mL: Alternaria solani, in Solanum lycopersicum, read-out: Test B rating (disease control); for Test B rating (% disease control): preventive spray, rating without asterisk.
The subject of test [6] is Blumeria graminis f. sp. tritici. As to the kind of experiment: Test I: wheat powdery mildew, preventive spray on wheat seedlings, visual disease rating. Conditions: for pest or weed control at 200 µg/mL / pest or weed control at 40 µg/mL: Blumeria graminis, in Triticum aestivum; for pest or weed control at 200 µg/mL: read-out: Test I rating (disease control), wheat powdery mildew; for Test I rating (% disease control): rating without asterisk; for pest or weed control at 40 µg/mL: read-out: Test I rating (% disease control), marked *, wheat powdery mildew, preventive spray.

Test [7] relates to Septoria nodorum. As to the kind of experiment: Test E: Septoria glume blotch, preventive spray on wheat seedlings, visual disease rating. Conditions: for pest or weed control at 200 µg/mL: Parastagonospora nodorum, in Triticum aestivum, read-out: Test E rating (disease control), Septoria glume blotch; for Test E rating (% disease control) / Test E rating (% disease control), marked *: Septoria glume blotch on wheat, preventive spray; for Test E rating (% disease control): rating without asterisk; for Test E rating (% disease control), marked *: rating marked with asterisk (*), other test suspension concentration than unmarked ratings.

Setting [8] is: 100 = 100% disease control, 0 = no disease control.
Setting [9] is: 100 = 100% disease control, 0 = no disease control relative to the controls.
The mark [10] stands for this setting: wheat leaf rust, 100 = 100% disease control.
The mark [11] stands for this setting: tomato early blight, 100 = 100% disease control.
Where [12] appears, read: wheat powdery mildew, preventive spray, 100 = 100% disease control.
Where [13] appears, read: rating marked with asterisk (*).
Where [14] appears, read: Botrytis cinerea, in Solanum lycopersicum.
The mark [15] stands for this setting: rating marked with asterisk (*), other test suspension concentration than unmarked ratings.

Marks after values point to notes of the source that are not given here.

For the compound `COc1cc(F)c(-c2c(C)nn(C)c2Nc2c(F)cc(F)cc2F)c(F)c1` [Compound 7, 4-(2,6-difluoro-4-methoxyphenyl)-1,3-dimethyl-N-(2,4,6-trifluorophenyl)-1H-pyrazol-5-amine], the pest or weed control at 200 µg/mL was determined as 94% in test [1]; 9% in test [2]; 97% in test [3] (setting [8]); 98% in test [4] (Botrytis cinerea, in Solanum lycopersicum, read-out: Test A rating (disease control), tomato Botrytis, 100 = 100% disease control, 0 = no disease control relative to the controls); 100% in test [5]; 100% in test [6] (setting [9]). The pest or weed control at 200 µg/mL in test [7] (setting [9]) worked out at 0%.

Regarding `Cc1nn(C)c(C(O)c2ccc(F)cc2Br)c1-c1ccc(F)cc1Cl` (stereo not drawn) [Compound 153, α-(2-bromo-4-fluorophenyl)-4-(2-chloro-4-fluorophenyl)-1,3-dimethyl-1H-pyrazole-5-methanol], the pest or weed control at 200 µg/mL worked out at 100% in test [1]; 0% in test [2]; 96% in test [3] (setting [8]); 0% in test [5]; 0% in test [6] (setting [9]); 0% in test [7] (setting [9]).

Consider `CCOc1ccc(-c2c(C)nn(C)c2Nc2ccc(F)cc2F)c(F)c1` [Compound 193], for which the “Test F rating (% disease control)” value in test [1] is reported as 100%. Also, the “Test G rating (% disease control)” value in test [2] stood at 0%. Besides, the “Test H rating (% disease control)” value in test [3] (setting [10]) was 27%. In test [5] (setting [11]), the “Test B rating (% disease control)” value turned out to be 58%. In test [6] (setting [12]), the “Test I rating (% disease control)” value came out at 92%. Moreover, the “Test E rating (% disease control)” value in test [7] (100 = 100% disease control) turned out to be 0%.

For the compound `COc1ccc(-c2c(C)nn(C)c2Nc2c(F)cccc2Cl)c(F)c1` [Compound 260, N-(2-chloro-6-fluorophenyl)-4-(2-fluoro-4-methoxyphenyl)-1,3-dimethyl-1H-pyrazol-5-amine], in test [1] (setting [13]), the pest or weed control was 100%. Also, the figures for the pest or weed control at 40 µg/mL in test [3], in test [4] (setting [14]) and in test [6] (setting [15]) were 85%, 100% and 90%, respectively. For the same compound, in test [7], the “Test E rating (% disease control), marked *” value is reported as 0* %.

With `COc1ccc(-c2c(C)nn(C)c2Nc2c(C)cccc2Cl)c(Cl)c1` [Compound 262, 4-(2-chloro-4-methoxyphenyl)-N-(2-chloro-6-methylphenyl)-1,3-dimethyl-1H-pyrazol-5-amine], the pest or weed control in test [1] (setting [13]) came out at 100%. Further, the pest or weed control at 40 µg/mL was determined as 85% in test [3], 97% in test [4] (setting [14]) and 79% in test [6] (setting [15]). Moreover, the “Test E rating (% disease control), marked *” value in test [7] is given as 0* %.

As for `COc1ccc(-c2c(C)nn(C)c2Nc2c(C)cccc2Br)c(Cl)c1` [Compound 263, N-(2-bromo-6-methylphenyl)-4-(2-chloro-4-methoxyphenyl)-1,3-dimethyl-1H-pyrazol-5-amine], in test [1] (setting [13]), the pest or weed control is 100%. The pest or weed control at 40 µg/mL came out at 79% in test [3] and 99% in test [4] (setting [14]). Besides, the “Test I rating (% disease control), marked *” value in test [6] (wheat powdery mildew, preventive spray, rating marked with asterisk (*), other test suspension concentration than unmarked ratings) was 13* %. For the same compound, the “Test E rating (% disease control), marked *” value in test [7] is recorded as 0* %.

Consider `COc1ccc(Oc2c(-c3ccc(F)cc3Cl)c(C)nn2C)c(F)c1` [compound 5], for which the “Test F rating (disease control), value marked *” value in test [1] (rating marked with asterisk (*), other test condition, not explained in the text shown) was 97* %. For the same compound, in test [3] (wheat leaf rust, sprayed the day before inoculation, 100 = 100% disease control, 0 = no disease control), the “Test H rating (disease control)” value amounted to 100%. The “Test A rating (disease control)” value in test [4] (tomato Botrytis, 100 = 100% disease control, 0 = no disease control relative to the controls) is 98%. In addition, the “Test B rating (disease control)” value in test [5] (tomato early blight, 100 = 100% disease control, 0 = no disease control relative to the controls) stood at 100%. In addition, in test [6] (wheat powdery mildew, 100 = 100% disease control, 0 = no disease control relative to the controls), the “Test I rating (disease control)” value was 99%. Further, in test [7] (Septoria glume blotch, 100 = 100% disease control, 0 = no disease control relative to the controls), the “Test E rating (disease control)” value stood at 97%.

For the compound `COc1ccc(-c2c(C)nn(C)c2Nc2c(Cl)cc(F)cc2Cl)c(F)c1` [compound 194], the “Test F rating (% disease control)” value in test [1] worked out at 100%. Besides, the “Test G rating (% disease control)” value in test [2] is recorded as 0%. The “Test H rating (% disease control)” value in test [3] (setting [10]) came to 95%. Moreover, the “Test B rating (% disease control)” value in test [5] (setting [11]) was determined as 93%. For the same compound, the “Test I rating (% disease control)” value in test [6] (setting [12]) came to 63%. Moreover, the “Test E rating (% disease control)” value in test [7] (100 = 100% disease control) is reported as 87%.
